# Data from patent publication US20210139902A1, “RNAI TARGET GENE THAT IS HIGHLY LETHAL TO APHIDS AND USE THEREOF” (CAS Center For Excellence in Molecular Plant Sciences, priority 2018, published 2021).
# Tested on: green peach aphid
# Assay: Field test of green peach aphid: dsRNA spray compared with imidacloprid
# Type: in vivo, Myzus persicae
# Conditions: dsRNA 300 ng/μl in water, 300 μl per plant, imidacloprid 10,000 times solution
# Text: Control effect (%)=(1−CK0×PT1/CK1×PT0)×100
# wherein PT0: the number of insects before drug administration in the treatment area; PT1: the number of insects after drug administration in the treatment area; • CK0: the number of insects before drug administration in the control area; CK1: the number of insects after drug administration in the control area.
# the dropping rate of insect population (%)=[(number of insects before drug administration−number of insects after drug administration)/number of insects before drug administration]×100
# 1. Radish seedlings of 12-15 days, inoculated with 100 insects, stabilized for 1 day, sprayed with dsRNA the next day.
# 2. The concentration of dsRNA used for spraying was 300 ng/μl. The synthesized dsRNA was dissolved in water and sprayed 300 μl per plant.
# 3. The concentration of imidacloprid was 10,000 times solution (Germany Bayer Emerald 70% imidacloprid 3 g, water dispersible granules), sprayed 300 μl per plant.
# 4. The experiment method: spray treatment, 4 replicates for each treatment.
smiles,measurement,setting,value
"O=[N+]([O-])NC1=NCCN1Cc1ccc(Cl)nc1 [Imidacloprid, imidacloprid]","Field test of green peach aphid: Control effect, 1 d",1 d,70.96 ± 4.25 Cc %
same,"Field test of green peach aphid: the dropping rate of insect population, 1 d","1 d, radish seedlings, 100 insects",37.33 ± 9.65 Bb %
same,"Field test of green peach aphid: Control effect, 3 d",3 d,93.78 ± 3.14 Cb %
same,"Field test of green peach aphid: the dropping rate of insect population, 3 d","3 d, radish seedlings, 100 insects",75.83 ± 15.25 Bb %
same,"Field test of green peach aphid: Control effect, 5 d",5 d,97.37 ± 1.88 Bb %
same,"Field test of green peach aphid: the dropping rate of insect population, 5 d","5 d, radish seedlings, 100 insects",84.35 ± 9.60 Bb %
